Assay results as given in patent US5834436A, “Membrane-permeant second messengers” (priority 1995, dated 1998).

Legend:
[1] = system: angelfish (Pterophyllum scalare) melanophores; experiment: Pigment dispersion in angelfish melanophores on isolated scales (FIG. 3); type: cell-based; conditions: for reversibility of dispersion (in words): removal of extracellular compound and epinephrine
Method: Melanophores permit a visual single-cell assay for the ability of cAMP analogs to enter cells and mimic cAMP actions. The melanophores were isolated on angelfish scales and the epidermis was stripped off. […] Dispersion was just detectable at 1 μM and half-maximal near 10 μM (FIG. 3A). […] The preceding examples are summarized in (64).

[2] = target: cAMP-dependent kinase type I (FICRhR) (Bos taurus, UniProt P00514); experiment: biochemical
Chain of cAMP-dependent kinase type I (FICRhR) (P00514 whole entry): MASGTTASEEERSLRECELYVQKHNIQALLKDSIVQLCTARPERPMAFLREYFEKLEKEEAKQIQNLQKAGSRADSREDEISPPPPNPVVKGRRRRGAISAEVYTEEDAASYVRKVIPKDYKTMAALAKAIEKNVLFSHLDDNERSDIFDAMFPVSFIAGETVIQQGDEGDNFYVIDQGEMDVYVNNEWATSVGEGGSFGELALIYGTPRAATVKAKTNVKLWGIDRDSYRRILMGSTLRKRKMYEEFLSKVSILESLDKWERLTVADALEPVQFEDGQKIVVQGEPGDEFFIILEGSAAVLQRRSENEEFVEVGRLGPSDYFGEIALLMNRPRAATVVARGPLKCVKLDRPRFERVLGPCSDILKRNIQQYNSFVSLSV
Text: When PKA is doubly labeled with fluorescein on its catalytic subunits and rhodamine on its regulatory subunits to produce FICRhR, fluorescence energy transfer from the fluorescein to rhodamine occurs in the holoenzyme complex but is disrupted upon activation and dissociation of the subunits. The change in the ratio of fluorescein to rhodamine emissions parallels the increase in kinase activity and can be nondestructively imaged in single cells. REF-52 fibroblasts were microinjected with FICRhR and emission ratio images recorded at room temperature as previously described (27).

T84 cells = experiment: cells; type: cell-based; conditions: for EC50: Homo sapiens, T84, 0.2 h, ISC 12 min after addition, read-out: EC50 for Cl- secretion
Text: A convenient test system is the intestinal cell line T84, in which chloride secretion can be continuously monitored by mounting confluent monolayers of cells in Ussing chambers (42).

[3] = target: cAMP-dependent protein kinase (PKA) (Bos taurus, UniProt P00514); experiment: cell-based; type: cell-based
1321N1 astrocytoma cells = experiment: Cytosolic free Ca2+ imaging (fura-2) in 1321N1 astrocytoma cells (FIGS. 7-9); type: cell-based
Method: Biological tests on 1321N1 astrocytoma cells were performed similarly to the tests on REF-52 cells (71). The concentration of Cytosolic free Ca^2+ (ordinate, in units of […]) in fura-2-loaded 1321N1 astrocytoma cells is shown as a function of time (abscissa, in units of seconds). At the dotted vertical line labeled 1, 20 μM inositol-1,4,5-triphosphate propionyloxymethyl ester (5a, R=Et, R'=H) was added. […] Subsequently the cells could respond to carbachol (200 μM, delivered at the dotted vertical line labeled 2), a drug that stimulates the endogenous generation of inositol-1,4,5-triphosphate. However, the response to carbachol is depressed by the prior treatment with the inositol-1,4,5-triphosphate propionyloxymethyl ester. Likewise the Ca^2+ response to thapsigargin (100 nM, delivered at the dotted vertical line labeled 3), another drug that releases stored Ca^2+, is depressed.
A test similar to the one shown in FIG. 7 was conducted except that the medium lacked extracellular Ca^2+ and a dose of 60 μM inositol-1,4,5-triphosphate propionyloxymethyl ester was added at the dotted vertical line labeled 1. […] Because no extracellular Ca^2+ was present, this response must have represented release from intracellular Ca^2+ stores. […] The much greater degree of inhibition of the carbachol response compared to the previous example (FIG. 7) is due to the higher dose of the inositol-1,4,5-triphosphate propionyloxymethyl ester and the absence of extracellular Ca^2+, which reduces refilling of Ca^2+ stores.
In a further example, the same test as set forth above was conducted with astrocytoma cells, except that 2 μM inositol-1,4,5-triphosphate butyryloxymethyl ester (5a, R=Pr, R'=H) was used instead of the propionyloxymethyl ester.

REF-52 fibroblasts = experiment: Cytosolic free Ca2+ imaging (fura-2) in single REF-52 fibroblasts (FIG. 6); type: cell-based
Method: The best-established biological effect of IP3 is to release Ca^2+ from internal stores (26), so IP3 /PM (5a, R=Et, R'=H) was tested by imaging cytosolic free Ca^2+ levels in single REF-52 fibroblasts using standard methodology (58). Cells were loaded with the Ca^2+ -indicator fura-2 and viewed by fluorescence excitation ratioing. IP3 /PM (40 μM) was applied extracellularly while monitoring cytosolic Ca^2+ concentrations.

[4] = 20 μM, extracellular Ca2+ present, FIG. 7
[5] = 60 μM, no extracellular Ca2+, FIG. 8

## CCCC(=O)Nc1ncnc2c1ncn2[C@@H]1O[C@@H]2COP(=O)(O)O[C@H]2[C@H]1OC(=O)CCC [Bt2 cAMP, N^6,O^2 '-dibutyryl cAMP, reference compound]
[1]; 1 mM
  pigment dispersion (in words): unable to cause any detectable dispersion
[2]; 10 μM (printed)
  activation at 10 µM: 16%
[2]; in vitro, FICRhR
  potency relative to cAMP: roughly 1/100
[2]; second Bt2 cAMP column, 10 μM printed
  activation at 10 µM: 61%
T84 cells
  EC50: 400 µM
[3]; 1 mM, FIG. 1 Graph B
  delay and time course of PKA activation relative to Bt2 cAMP/AM (in words): Much the same delay and overall time course
[3]; extracellular application
  concentration required for PKA activation: 1 mM

## CCCC(=O)Nc1ncnc2c1ncn2[C@@H]1O[C@@H]2COP(=O)(OCOC(C)=O)O[C@H]2[C@H]1OC(=O)CCC (some centres unmarked) [Bt2 cAMP/AM, N^6,O^2 '-Dibutyryl Adenosine 3',5'-cyclic Monophosphate Acetoxymethyl Ester]
[1]; 100 μM, extracellular
  pigment dispersion (in words): essentially complete dispersal
[1]; 100 μM
  reversibility of dispersion (in words): easily reversed
[1]; 1 mM
  onset of dispersion relative to 100 μM (in words): slightly faster onset of action
  reversibility of dispersion (in words): could not be readily reversed
[1]; Pterophyllum scalare, Melanophore, read-out: concentration at which dispersion was just detectable
  minimal effective concentration: 1 µM
[1]; Pterophyllum scalare, Melanophore, read-out: concentration for half-maximal dispersion
  EC50: ~10 µM
[1]; melanophore dispersion
  increase in potency by AM ester group (vs Bt2 cAMP): more than 1000
[2]; 1 μM
  separation of the FICRhR subunits in vitro (in words): no separation of the subunits
[2]; 10 μM (printed)
  activation at 10 µM: 0%
T84 cells; 3 μM, serosal bathing solution
  time to maximum ISC: 20 min
T84 cells; Cl- secretion
  increase in potency by acetoxymethyl group (vs Bt2 cAMP): 200 fold
T84 cells
  EC50: 2 µM
T84 cells; T84 cells
  kinetics of activation, ester vs Bt2 cAMP (in words): essentially indistinguishable kinetics of activation
T84 cells; relative to 3 μM
  ISC response at other concentrations (in words): Higher concentrations of the derivative caused faster but not significantly greater responses, whereas lower concentrations reached lower maximum ISC values
[3]; 10 μM (highest dose), added extracellularly, room temperature
  time to maximal change in fluorescence ratio: ≤ 15 min
[3]; REF52, 1 μM (intermediate dose), read-out: plateau of fluorescence ratio change (% of the maximal change)
  activation at 1 µM: > 50%
[3]; extracellular addition
  onset of separation of regulatory and catalytic subunit of FICRhR after addition: roughly 2 min

## Nc1ncnc2c1nc(Sc1ccc(Cl)cc1)n2[C@@H]1O[C@@H]2COP(=O)(O)O[C@H]2[C@H]1O [Compound 8-pCPT-cAMP, 8-para-chlorophenylthio (cCPT) cAMP, reference compound]
T84 cells
  EC50: 100 µM

## D-myo-inositol-1,4,5-triphosphate butyryloxymethyl ester [IP3 /BM]
1321N1 astrocytoma cells; 2 μM, FIG. 9
  potency relative to propionyloxymethyl ester (in words): somewhat more potent
  rate of effects relative to propionyloxymethyl ester (in words): slower to appear and decay

## Nc1ncnc2c1nc(Br)n2[C@@H]1O[C@@H]2COP(=O)(O)O[C@H]2[C@H]1O [Compound 8-Br-cAMP, 8-bromo-cAMP, reference compound]
T84 cells
  EC50: 1500 µM

## CCC(=O)OCOP(=O)(OCOC(=O)CC)O[C@@H]1[C@H](O)[C@H](O)[C@@H](OP(=O)(OCOC(=O)CC)OCOC(=O)CC)[C@H](OP(=O)(OCOC(=O)CC)OCOC(=O)CC)[C@H]1O [IP3 /PM, D-myo-inositol-1,4,5-triphosphate propionyloxymethyl ester]
1321N1 astrocytoma cells; [4]
  Ca2+ response to thapsigargin (100 nM) after treatment (in words): depressed
  delay of cytosolic Ca2+ elevation: about 100 second
  elevation of cytosolic Ca2+ (in words): sizable elevation of cytosolic Ca^2+
  response to carbachol (200 μM) after treatment (in words): depressed
1321N1 astrocytoma cells; [5]
  delay of cytosolic Ca2+ elevation: ~50 s
  elevation of cytosolic Ca2+ (in words): sizable elevation of cytosolic Ca^2+
  response to carbachol (200 μM) after treatment (in words): greatly depressed
1321N1 astrocytoma cells; summary, intact REF-52 fibroblasts and astrocytoma cells
  Ca2+ release from internal stores (in words): released Ca^2+ from internal stores
REF-52 fibroblasts; 40 μM, extracellular
  cytosolic Ca2+ concentration after addition (in words): increased rapidly
REF-52 fibroblasts; after 40 μM IP3/PM
  effect of subsequent vasopressin (in words): much less effect than normal
